Measurements reported in US12636309B2, “Storage stable formulations of sulfated glycosaminoglycans and fragments derived therefrom for the treatment of pain and other medical conditions” (ADORA ANIMAL HEALTH CORPORATION, priority 2022, dated 2026).

Columns and labels:
[1] = Electrophoresis of polyanionic property on cellulose acetate membrane; format: physicochemical; conditions: 0.2 N hydrochloric acid, about 65 mA for 65 minutes; for DISTANCE (CM): electrophoretic migration from cathode end, toluidine blue stain
Description: The unique polyanionic property of polysulfated glycosaminoglycan (PSGAG) is determined by electrophoresis. A 70 mm cellulose acetate (CA) membrane, saturated with 0.2 N hydrochloric acid is suspended with contact between the cathode and anode of an electrophoresis chamber. A test solution of PSGA G containing about 1 microgram of PSGAG is applied to the cathode end of the strip. A current of about 65 mA is applied for 65 minutes. The CA membrane is removed from the tank, then stained with a 0.1% toluidine blue solution for 5 minutes. The CA membrane is rinsed with a sufficient quantity of water to remove the excess toluidine blue. On the strip, PSGAG appears as only one violet-blue spot at a distance of approximately 3 cm from its starting point.
The cathode is the negative terminal of the electrophoresis chamber. Anionic compounds, such as PSGAG, under an applied current will migrate towards the chamber's anode (i.e., its positive terminal). The polyanionic property of PSGAG was compared to hyaluronic acid, chondroitin sulfate A, chondroitin sulfate B (dermatan sulfate), chondroitin sulfate C, heparin sulfate and keratan sulfate using electrophoresis.

[2] = rabbits, IM injection; incl. articular cartilage, synovial fluid, kidneys, brain, liver, skin, heart; cited from earlier work
serine proteinases = conditions: in vitro; cited from earlier work
[3] = test system: Prostaglandin E2 (PGE2) synthesis; conditions: cited from earlier work
elastase = conditions: cited from earlier work
stromelysin = stromelysin (Homo sapiens, UniProt P08254); conditions: cited from earlier work
metalloproteases = conditions: cited from earlier work
cathepsin B1 = cathepsin B1 (Homo sapiens, UniProt P07858); conditions: cited from earlier work
hyaluronidases = conditions: cited from earlier work
human chondrocytes = conditions: cultured human chondrocytes; cited from earlier work
rabbit chondrocytes = conditions: cultured rabbit chondrocytes; cited from earlier work
synovial membrane cells = synovial membrane cells in vitro; cited from earlier work

Chain of stromelysin (P08254 100-477): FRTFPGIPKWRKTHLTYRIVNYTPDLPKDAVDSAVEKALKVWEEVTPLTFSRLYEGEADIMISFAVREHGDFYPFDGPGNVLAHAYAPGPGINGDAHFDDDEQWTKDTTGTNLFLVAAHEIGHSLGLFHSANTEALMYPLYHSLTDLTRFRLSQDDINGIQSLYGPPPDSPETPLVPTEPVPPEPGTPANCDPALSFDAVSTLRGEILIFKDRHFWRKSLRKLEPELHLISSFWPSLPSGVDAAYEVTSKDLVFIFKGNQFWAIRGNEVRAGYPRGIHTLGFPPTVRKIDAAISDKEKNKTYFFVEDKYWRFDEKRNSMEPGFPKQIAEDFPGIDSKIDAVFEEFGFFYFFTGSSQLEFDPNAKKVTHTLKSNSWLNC

Substance: hyaluronic acid
- DISTANCE (CM) [1]: 1.1 ± 0.1 (n = 2) CM

Substance: polysulfated glycosaminoglycan [PSGAG]
- distance of the violet-blue spot from its starting point [1]: approximately 3 cm
- DISTANCE (CM) [1]: 3.1 ± 0.3 (n = 12) CM
- tissue distribution [2]: distributed to all tissues studied
- inhibition of serine proteinases (serine proteinases): significantly inhibit
- inhibition of Prostaglandin E2 (PGE2) synthesis [3]: inhibitor
- inhibition of elastase (elastase): inhibit
- inhibition of stromelysin (stromelysin): inhibit
- inhibition of metalloproteases (metalloproteases): inhibit
- inhibition of cathepsin B1 (cathepsin B1): inhibit
- inhibition of hyaluronidases (hyaluronidases): inhibit
- synthesis of proteoglycan and hyaluronic acid (human chondrocytes): increased synthesis
- synthesis of proteoglycan and hyaluronic acid (rabbit chondrocytes): increased synthesis
- effect on hyaluronic acid synthesis (synovial membrane cells): specific potentiating effect

Substance: chondroitin sulfate C
- DISTANCE (CM) [1]: 2.0 ± 0.3 (n = 2) CM

Substance: heparin sulfate
- DISTANCE (CM) [1]: 2.3 ± 0.0 (n = 2) CM

Substance: keratan sulfate [Keratin Sulfate]
- DISTANCE (CM) [1]: 2.5 ± 0.1 (n = 2) CM

Substance: chondroitin sulfate B (dermatan sulfate)
- DISTANCE (CM) [1]: 1.7 ± 0.0 (n = 2) CM

Substance: chondroitin sulfate A
- DISTANCE (CM) [1]: 2.1 ± 0.0 (n = 2) CM
